The source of these data is patent publication US20040038875A1, “Alpha 7nicotinic receptor screening assays” (priority 2002, published 2004).

Experiment [1] deals with T1, homomeric alpha 7 nicotinic receptors (Homo sapiens, UniProt P36544). To be noted: cited from earlier work.
Experiment [2] has as its target T2, human alpha 7 nicotinic receptor (Homo sapiens, UniProt P36544).
T2 construct: expressed in transfected cells; host or cells: Xenopus oocytes injected with in vitro transcribed alpha 7 subunit mRNA
In words: ACh-induced currents / Ca2+ flux in Xenopus oocytes expressing human alpha 7 nicotinic receptors (two microelectrode voltage clamp, intracellular recordings). It is filed as cell-based.

For a further experiment, the system named is hippocampal neurons. Kind of experiment: Ca2+ flux into hippocampal neurons. It is filed as cell-based. The source says: This is of particular interest in relation to Alzheimer's Disease since the hippocampus is the major site of degeneration neuropathology associated with that disease.
On the technique in general: Calcium flux is commonly read through the fluorescence of an indicator in the cells.

Experiment [3] relates to neurons of the substantia nigra. The note with it: cited from earlier work.
The target of experiment [4] is T3, neuronal chick homomeric alpha 7 nicotinic receptors (Gallus gallus, UniProt P22770).
T3 construct: host or cells: oocytes
To be noted: in the μM range, chick receptor in oocytes; cited from earlier work.

The target in experiment [5] is T1, homomeric alpha 7 nicotinic receptors. On the set-up: host or cells: oocytes. To be noted: in the μM range, human receptor in oocytes; cited from earlier work.

T2 sequence (P36544 23-502): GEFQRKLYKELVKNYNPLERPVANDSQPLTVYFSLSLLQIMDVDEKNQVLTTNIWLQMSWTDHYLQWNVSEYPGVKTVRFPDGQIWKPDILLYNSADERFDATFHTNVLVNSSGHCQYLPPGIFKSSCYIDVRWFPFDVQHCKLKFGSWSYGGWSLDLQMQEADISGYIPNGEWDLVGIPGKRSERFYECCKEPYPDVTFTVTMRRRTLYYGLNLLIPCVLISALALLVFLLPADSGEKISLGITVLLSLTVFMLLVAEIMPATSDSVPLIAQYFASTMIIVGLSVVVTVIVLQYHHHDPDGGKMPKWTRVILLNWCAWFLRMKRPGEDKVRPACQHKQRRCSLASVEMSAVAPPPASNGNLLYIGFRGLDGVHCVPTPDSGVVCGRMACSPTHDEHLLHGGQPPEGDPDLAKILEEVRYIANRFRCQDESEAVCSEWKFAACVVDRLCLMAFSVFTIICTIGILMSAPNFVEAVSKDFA
T1 sequence (P36544 23-502): as above
T3 sequence (P22770 23-502 limits assumed): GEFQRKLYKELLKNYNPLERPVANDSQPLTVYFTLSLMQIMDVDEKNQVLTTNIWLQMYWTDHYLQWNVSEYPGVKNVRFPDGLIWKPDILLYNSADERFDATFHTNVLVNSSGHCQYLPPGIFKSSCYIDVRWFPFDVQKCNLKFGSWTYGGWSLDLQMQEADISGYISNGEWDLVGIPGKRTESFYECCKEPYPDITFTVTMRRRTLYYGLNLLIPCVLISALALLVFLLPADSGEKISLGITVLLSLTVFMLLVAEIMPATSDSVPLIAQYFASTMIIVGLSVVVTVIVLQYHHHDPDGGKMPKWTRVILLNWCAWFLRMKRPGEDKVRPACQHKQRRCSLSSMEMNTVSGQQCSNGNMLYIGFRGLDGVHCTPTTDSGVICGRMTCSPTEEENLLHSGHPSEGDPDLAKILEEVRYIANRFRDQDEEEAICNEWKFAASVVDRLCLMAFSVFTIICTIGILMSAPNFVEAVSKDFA

Regarding `COc1ccc(/C=C2\CCCN=C2c2cccnc2)c(OC)c1` [GTS-21, 2,4-dimethoxybenzylidene anabaseine], the “functional selectivity compared to α4β2 nicotinic receptors” value in experiment [1] is given as “high functional selectivity”.

For the compound AEFHRWSSYMVHWK [Synaptica Peptide], the reversibility of effects result in experiment [2] is reported as “reversible but recovery was slow”. Besides, the “effect on ACh-induced Ca2+ flux” value in experiment [2] (0.001 μM applied with ACh, no pre-incubation) was “increased Ca^2+ flux”. Further, the “Ca2+ current, intracellular recordings” value in experiment [2] (10 μM applied without ACh) is listed as “no Ca^2+ current was observed”. For the same compound, the “current, intracellular recordings” value in experiment [2] (10 μM followed after 30 seconds by 100 μM ACh) was “reduced current compared to that observed with ACh alone”. The “effect on ACh-evoked response at high dose” value in experiment [2] (high dose, range 10^−12 to 5×10^−6) is “enhancement of ACh-evoked response observed with low doses of the peptide was reversed”. In experiment [2] (peptide applied, after 2 minutes co-application of peptide and ACh), the “effect on ACh-mediated responses” value is given as “inhibition of ACh-mediated responses”. Further, the “Ca2+ flux into hippocampal neurons” value in the experiment with hippocampal neurons is given as “enhance Ca^2+ flux into hippocampal neurons which eventually switches off calcium channels”. The “calcium potentials induced by NMDA or direct depolarisation” value in experiment [3] (initial effect) is reported as “initially enhances calcium potentials”. The calcium entry result in experiment [3] (sustained application for a few minutes) is “reduction in calcium entry”.

Take “Aβ1-42: Aβ1-42 fragment of human APP associated with Alzheimer's Disease [reference compound]”: the “modulation of calcium influx” value in experiment [3] was “not observed”.

Consider ivermectin, for which the acetyl choline-evoked currents result in experiment [4] and in experiment [5] was “strongly enhance” in each case.
